ChEMBL document CHEMBL5303304, “EUbOPEN Chemogenomics Library - IncuCyte” (2023)

Tests used:
Format in all cases: toxicity, cell-based
[1] = test system: HEK-293T; test: Incucyte cell viability with HEK293T; conditions: human, 10 µM, compound concentration 10 uM
[2] = test system: U2OS; test: Incucyte cell viability with U2OS; conditions: human, 10 µM, compound concentration 10 uM
[3] = test system: Fibroblast; test: Incucyte cell viability with human fibroblast; conditions: 10 µM, compound concentration 10 uM
Note: unitless GR value; below 1 slowed growth and below 0 cell loss.

Structure (SMILES)	Growth Rate ([2]; 12 h, replicate number 2)	Growth Rate ([2]; 18 h, replicate number 2)	Growth Rate ([2]; 24 h, replicate number 2)	Growth Rate ([2]; 0 h, replicate number 1)	Growth Rate ([2]; 0 h, replicate number 2)	Growth Rate ([2]; 6 h, replicate number 2)	Growth Rate ([3]; 6 h, replicate number 2)	Growth Rate ([3]; 12 h, replicate number 2)	Growth Rate ([3]; 18 h, replicate number 1)	Growth Rate ([3]; 18 h, replicate number 2)	Growth Rate ([3]; 24 h, replicate number 1)	Growth Rate ([3]; 24 h, replicate number 2)	Growth Rate ([2]; 24 h, replicate number 1)	Growth Rate ([2]; 6 h, replicate number 1)	Growth Rate ([2]; 12 h, replicate number 1)	Growth Rate ([3]; 6 h, replicate number 1)	further results
CNc1oc(-c2cccc3ccccc23)nc1C#N	0.93	0.92	0.99														Growth Rate ([1]; 0 h, replicate number 2): -0.92
COc1cc(Nc2cnc(C#N)c(O[C@H](C)CN(C)C)n2)ncc1-c1cnn(C)c1	0.82	0.67	0.43	-1	0.66	0.42											Growth Rate ([1]; 0 h, replicate number 1): -1; Growth Rate ([1]; 0 h, replicate number 2): -0.51; Growth Rate ([1]; 6 h, replicate number 1): 0.63; Growth Rate ([1]; 6 h, replicate number 2): -0.18; Growth Rate ([1]; 12 h, replicate number 1): -0.1; Growth Rate ([1]; 12 h, replicate number 2): -0.4; Growth Rate ([1]; 18 h, replicate number 1): -0.17; Growth Rate ([1]; 18 h, replicate number 2): -0.32; Growth Rate ([1]; 24 h, replicate number 1): -0.06; Growth Rate ([1]; 24 h, replicate number 2): -0.22
O=C(O)c1cccc(C2=C(c3cc(Cl)ccc3OCc3ccc(F)cc3F)CCC2)n1	1																Growth Rate ([1]; 0 h, replicate number 1): 0.79
CC(C)N(CCCCOCC(=O)O)c1cnc(-c2ccccc2)c(-c2ccccc2)n1			0.99														Growth Rate ([3]; 0 h, replicate number 2): -0.09
N#C/C(=C\c1ccc(O)c(O)c1)C(=O)OCCc1cccs1	0.63	0.94	0.93		0.41		-0.28	0.78	1	0.58	0.86	0.54	0.8				
CC(C)(O)[C@H](F)CN1Cc2cc(NC(=O)c3cnn4cccnc34)c(N3CCOCC3)cc2C1=O	0.95	0.95	0.93	-0.84													Growth Rate ([1]; 0 h, replicate number 2): 0.15; Growth Rate ([1]; 6 h, replicate number 1): 0.89; Growth Rate ([1]; 6 h, replicate number 2): 0.72; Growth Rate ([1]; 12 h, replicate number 1): 1; Growth Rate ([1]; 12 h, replicate number 2): 0.86; Growth Rate ([1]; 18 h, replicate number 2): 0.82; Growth Rate ([1]; 24 h, replicate number 1): 0.96; Growth Rate ([1]; 24 h, replicate number 2): 0.85
COc1cc(-c2cncc(-c3ccc(N4CCN(C(C)C)CC4)cc3)c2C)cc(F)c1C(N)=O																	Growth Rate ([3]; 0 h, replicate number 2): -0.84; Growth Rate ([1]; 0 h, replicate number 1): -0.67
Cl.Cl.Nc1nccc(-c2c(-c3ccc(F)cc3)ncn2C2CCCCC2)n1		0.84	0.81										0.95	0.19	0.8		Growth Rate ([1]; 0 h, replicate number 2): 0.73; Growth Rate ([1]; 6 h, replicate number 1): 0.63; Growth Rate ([1]; 6 h, replicate number 2): 0.51; Growth Rate ([1]; 12 h, replicate number 1): 0.99; Growth Rate ([1]; 12 h, replicate number 2): 0.49; Growth Rate ([1]; 18 h, replicate number 1): 0.99; Growth Rate ([1]; 18 h, replicate number 2): 0.44; Growth Rate ([1]; 24 h, replicate number 1): 0.95; Growth Rate ([1]; 24 h, replicate number 2): 0.51; Growth Rate ([2]; 18 h, replicate number 1): 0.93
CNc1ncc2cc(-c3ccc(-c4ncccc4F)cc3Cl)c(=O)n(C[C@H]3OC[C@H](N)CO3)c2n1							-0.26	-0.06	0.78	0.35	0.8	0.66				0.02	Growth Rate ([3]; 12 h, replicate number 1): 0.37; Growth Rate ([1]; 0 h, replicate number 1): -0.97
Cc1cc(Cn2c(N3CC4(CNC4)C3)nc3cc(Cl)cc(N4CCN(C)CC4)c32)cc(C)c1F	0.82	0.98	0.96	-0.3	-0.61	0.64	-0.44	0.21	0	0.16	0.06	0.36	0.83	0.43	0.79	-0.09	Growth Rate ([3]; 0 h, replicate number 1): -1; Growth Rate ([3]; 0 h, replicate number 2): -0.8; Growth Rate ([3]; 12 h, replicate number 1): -0.09; Growth Rate ([2]; 18 h, replicate number 1): 0.95
CCN1C(=O)C(c2cccc(C(=O)O)c2)C(=O)N(c2ccccc2)c2cc(C(F)(F)F)ccc21 (stereo unspecified)	0.94	0.95		0.96	0.93	0.97	-0.94	0.41	0.92	0.96	0.95		0.88	0.49	0.8	0.7	Growth Rate ([3]; 0 h, replicate number 1): -1; Growth Rate ([3]; 0 h, replicate number 2): 0.93; Growth Rate ([3]; 12 h, replicate number 1): 0.85
COc1cc(C)c(S(=O)(=O)N(C)CCC(=O)N[C@H]2CC[C@@H](N3CCC4CN(C)CC4C3)CC2)c(C)c1.Cl.Cl (stereo partly specified)	0.88	0.99				0.87								0.78	0.97	0.39	Growth Rate ([3]; 0 h, replicate number 2): -0.7
O=C(Nc1cc2cc[nH]c(=O)c2cc1Cl)[C@H]1CNC[C@@H]1c1cccnc1.O=C(O)C(F)(F)F																	Growth Rate ([1]; 0 h, replicate number 1): -0.73
CS(C)(=O)=Nc1ccc(-c2ccc(-c3nc4[nH]c(O[C@@H]5CO[C@H]6[C@@H]5OC[C@H]6O)nc4cc3Cl)cc2)cc1	0.92	0.97	0.98	0.01		0.94					0.75		0.77	0.36	0.65		Growth Rate ([2]; 18 h, replicate number 1): 0.82
Cc1nc2cccnc2n2c(-c3cc([C@@]4(O)CCCOC4)ccc3Cl)nnc12	0.83	0.96					-0.24	0.67	0.97	0.74	0.81	0.88				0.39	
COc1cc(-c2cc3ncccc3c(O[C@@H](C)[C@H]3CNC(=O)C3)n2)cc(OC)c1OC								0.62						0.94			
Cc1cnc(Nc2ccc(C(=O)N3CCN(C)CC3)cc2)nc1N[C@@H]1CCC[C@@H]1C(N)=O	0.38	0.45	0.52	0.86	0.22	-0.77	0.31	-0.08		0.56	0.96	0.61	0.34	0.41	0.4		Growth Rate ([3]; 12 h, replicate number 1): 0.62; Growth Rate ([2]; 18 h, replicate number 1): 0.31
Cl.Clc1cc2cc(c1)-c1cnn3ccc(nc13)NCCOCCO2	0.85		0.92	-0.1	0.65	0.72	-0.68		0.22		-0.13		0.93		0.99	0.79	Growth Rate ([3]; 12 h, replicate number 1): -1
O=C(O)c1ccc(CN2C[C@@H]3C[C@H]2CN3Cc2ccc(Oc3ccc(-c4ncco4)cc3)cc2)cc1 [ACEBILUSTAT]	0.49	0.79	0.82		0.32	-0.01	-0.8	0.38		0.62		0.87		0.74			Growth Rate ([3]; 0 h, replicate number 1): -0.98
CC(C)(C#N)c1cc(Cn2cncn2)cc(C(C)(C)C#N)c1 [ANASTROZOLE]				-0.51					0.84		0.63						Growth Rate ([3]; 0 h, replicate number 2): -1; Growth Rate ([3]; 12 h, replicate number 1): -1
C[C@H](CCC(=O)O)[C@H]1CC[C@H]2[C@@H]3CC[C@@H]4C[C@H](O)CC[C@]4(C)[C@H]3C[C@H](O)[C@]12C [DEOXYCHOLIC ACID]	0.96			0.46	0.84	0.82	0.72	0.78	0.97	0.69		0.9	0.86	0.86	0.76	0.32	Growth Rate ([3]; 0 h, replicate number 1): 0.67; Growth Rate ([2]; 18 h, replicate number 1): 0.88
C[C@]12CC[C@H](O)CC1=CC[C@@H]1[C@@H]2CC[C@]2(C)C(n3cnc4ccccc43)=CC[C@@H]12 [GALETERONE]				-0.4			-0.64		0.61		0.01					0.94	Growth Rate ([3]; 0 h, replicate number 1): -0.16; Growth Rate ([3]; 0 h, replicate number 2): 0.96
CC#CCC(C)[C@H](O)/C=C/[C@@H]1[C@H]2C/C(=C/CCCC(=O)O)C[C@H]2C[C@H]1O (stereo partly specified) [ILOPROST]													0.86				Growth Rate ([1]; 0 h, replicate number 1): 0.66; Growth Rate ([1]; 0 h, replicate number 2): 0.38
COc1nc2ccc([C@@](O)(c3ccc(Cl)cc3)c3cncn3C)cc2c(Cl)c1Cc1ccc(-n2cccn2)cc1 [JNJ-53721590]				-1										-0.25			Growth Rate ([1]; 0 h, replicate number 1): -0.99; Growth Rate ([1]; 0 h, replicate number 2): -1
c1ccc(Cn2c(N3CCNCC3)nc3ccccc32)cc1 [LERISETRON]		0.94	0.99			0.64	-0.44	0.34		0.56		0.68		0.7			Growth Rate ([3]; 0 h, replicate number 1): -0.1
